{
  "source": "patent US10696686B2",
  "about": "“Herbicidally active (alkynyl-phenyl)-substituted cyclic dione compounds and derivatives thereof” (Syngenta Limited, priority 2013, dated 2020)",
  "assay_type_in_all_cases": "in vivo",
  "key": {"[1]": {"system": "grassy (in particular warm climate grassy) monocotyledonous weeds", "experiment": "Post-emergence herbicidal activity, summary statements on Biological Examples 1 to 3", "conditions": "applied at about 250 g/ha post-emergence; Biological Examples 1 and 2", "experimental": "(§1) Seeds of a variety of test plant species were sown in standard soil ** in pots. After cultivation for one day (pre-emergence) or after 8 days cultivation (post-emergence) under controlled conditions in a glasshouse (at 24/16° C., day/night; 14 hours light; 65% humidity), the plants were sprayed with an aqueous spray solution derived from the formulation of the technical active ingredient (the test herbicide) in acetone/water (50:50) solution containing 0.5% Tween 20 (polyoxyethylene sorbitan monolaurate, CAS Reg. No. 9005-64-5). The test plants were then grown on under controlled conditions in a glasshouse (at 24/16° C., day/night; 14 hours light; 65% humidity) and watered twice daily. 13 Days after application of the test herbicide, for pre- and post-emergence, the test was evaluated visually for percentage phytotoxicity to each plant (where 100%=total damage to plant; 0%=no damage to plant). Generally, each test herbicide is only tested on 1 plant per plant species for each application rate tested and for each application timing. ** The “standard soil” in Biological Example 1 is usually a “sand” or “sandy loam” type of soil.\nSeeds of a variety of monocotyledonous and dicotyledonous test plants are sown in standard soil in pots. The plants are cultivated for one day (for pre-emergence) or for about 12 days (range=10-13 days) (for post-emergence) under controlled conditions in a glasshouse (warm climate species at 24/18° C., cool climate species at 20/16° C., both at day/night; 16 hours light; 65% humidity). An “instant formulation”, known as the “IF50”, containing 50 g/litre (i.e. 5% w/v) of the “technical” (i.e. unformulated) active ingredient is prepared by dissolving the active ingredient in a mixture of organic solvents and emulsifier, details of which are provided in the Table below. […]\nThe test plants are then grown on, in a glasshouse (greenhouse) under controlled conditions (at either 24/18° C. or 20/16° C. (day/night) as mentioned above; 16 hours light; 65% humidity) and are watered twice daily. Either 14 or 15 days after application of the herbicide (14 or 15 DAA) (for post-emergence), or 20 days after application of the herbicide (20 DAA) (for pre-emergence), the test plants are evaluated visually, and an assessed percentage phytotoxicity score is given for each herbicidal application on each plant species (where 100%=total damage to plant; 0%=no damage to plant). […]"}, "[2]": {"system": "Zea mays (ZEAMX, corn, maize, e.g. volunteer corn)", "experiment": "Biological Example 1B glasshouse assay, pre-emergence application", "conditions": "250 g/ha, 13 days after application", "experimental": "as §1\nDicotyledonous weeds: ABUTH=Abutilon theophrasti; AMARE=Amaranthus retroflexus. Grassy monocotyledonous weeds: SETFA=Setaria faberi; ALOMY=Alopecurus myosuroides; ECHCG=Echinochloa crus-galli; ZEAMX=Zea mays (corn, maize, e.g. volunteer corn). For Compound A16, the grassy monocotyledonous weed LOLPE (Lolium perenne) was used in the test insterad of ALOMY."}, "[3]": {"system": "Triticum aestivum (TRZAW, winter wheat)", "experiment": "Biological Example 2 glasshouse assay (IF50 formulation, X-77), post-emergence", "conditions": "for percentage phytotoxicity score TRZAW: 14 or 15 DAA", "experimental": "(§2) Seeds of a variety of monocotyledonous and dicotyledonous test plants are sown in standard soil in pots. The plants are cultivated for one day (for pre-emergence) or for about 12 days (range=10-13 days) (for post-emergence) under controlled conditions in a glasshouse (warm climate species at 24/18° C., cool climate species at 20/16° C., both at day/night; 16 hours light; 65% humidity). An “instant formulation”, known as the “IF50”, containing 50 g/litre (i.e. 5% w/v) of the “technical” (i.e. unformulated) active ingredient is prepared by dissolving the active ingredient in a mixture of organic solvents and emulsifier, details of which are provided in the Table below. This IF50 is then mixed with a small, variable amount of acetone to aid dissolution, before addition of a 0.2% v/v aqueous solution of the adjuvant X-77 (which is a mixture of alkyl aryl polyoxyethylene glycols and free fatty acids in isopropanol, CAS Registry number 11097-66-8), as the aqueous diluent, to form an aqueous spray solution which contains a predetermined concentration of the active ingredient (which varies depending on the application rate of the active ingredient to the plants) and 0.2% v/v of the adjuvant X-77. This aqueous spray solution is then sprayed onto the plants, after one day's cultivation (for pre-emergence) or after about 12 days' cultivation (for post-emergence).\n(§3) The test plants are then grown on, in a glasshouse (greenhouse) under controlled conditions (at either 24/18° C. or 20/16° C. (day/night) as mentioned above; 16 hours light; 65% humidity) and are watered twice daily. Either 14 or 15 days after application of the herbicide (14 or 15 DAA) (for post-emergence), or 20 days after application of the herbicide (20 DAA) (for pre-emergence), the test plants are evaluated visually, and an assessed percentage phytotoxicity score is given for each herbicidal application on each plant species (where 100%=total damage to plant; 0%=no damage to plant). Some of the typical test plants are as follows: Cool climate crop plants: Triticum aestivum (TRZAW, winter wheat), Brassica napus (BRSNN, rape, also called oilseed rape or rapeseed), Beta vulgaris (BEAVA, sugarbeet). Warm climate crop plants: Glycine max (GLXMA, soybean). Cool climate (“cool season”) grassy monocotyledonous weeds: Alopecurus myosuroides (ALOMY), Avena fatua (AVEFA), Lolium perenne (LOLPE), Poa annua (POAAN), Bromus tectorum (BROTE). Warm climate (“warm season”) grassy monocotyledonous weeds: Setaria faberi (SETFA), SORVU (Sorghum bicolor (L.) Moench ssp. Bicolor, or Sorghum vulgare Pers.), Digitaria sanguinalis (DIGSA), Echinochloa crus-galli (ECHCG), Brachiaria plantaginea (BRAPL), Zea mays (ZEAMX, corn, maize, e.g. volunteer corn), Panicum miliaceum (PANMI)."}, "[4]": {"system": "Brassica napus (BRSNN, rape)", "experiment": "Biological Example 2 glasshouse assay (IF50 formulation, X-77), post-emergence", "conditions": "14 or 15 DAA", "experimental": "as §2, §3"}, "[5]": {"system": "Digitaria sanguinalis (DIGSA)", "experiment": "Biological Example 2 glasshouse assay (IF50 formulation, X-77), post-emergence", "conditions": "14 or 15 DAA", "experimental": "as §2, §3"}, "[6]": {"system": "Avena fatua (AVEFA)", "experiment": "Biological Example 2 glasshouse assay (IF50 formulation, X-77), post-emergence", "conditions": "14 or 15 DAA", "experimental": "as §2, §3"}, "[7]": {"system": "Zea mays (ZEAMX, corn, maize, e.g. volunteer corn)", "experiment": "Biological Example 2 glasshouse assay (IF50 formulation, X-77), post-emergence", "conditions": "14 or 15 DAA", "experimental": "as §2, §3"}, "[8]": {"system": "Brachiaria plantaginea (BRAPL)", "experiment": "Biological Example 2 glasshouse assay (IF50 formulation, X-77), post-emergence", "conditions": "14 or 15 DAA", "experimental": "as §2, §3"}, "[9]": {"system": "Glycine max (GLXMA, soybean)", "experiment": "Biological Example 2 glasshouse assay (IF50 formulation, X-77), post-emergence", "conditions": "for percentage phytotoxicity score GLXMA: post-emergence, 14 or 15 DAA", "experimental": "as §2, §3"}, "[10]": {"system": "Alopecurus myosuroides (ALOMY)", "experiment": "Biological Example 2 glasshouse assay (IF50 formulation, X-77), post-emergence", "conditions": "14 or 15 DAA", "experimental": "as §2, §3"}, "[11]": {"system": "Lolium perenne (LOLPE)", "experiment": "Biological Example 2 glasshouse assay (IF50 formulation, X-77), post-emergence", "conditions": "14 or 15 DAA", "experimental": "as §2, §3"}, "[12]": {"system": "Beta vulgaris (BEAVA, sugarbeet)", "experiment": "Biological Example 2 glasshouse assay (IF50 formulation, X-77), post-emergence", "conditions": "for percentage phytotoxicity score BEAVA: post-emergence, 14 or 15 DAA", "experimental": "as §2, §3"}, "[13]": {"system": "SORVU (Sorghum bicolor (L.) Moench ssp. Bicolor, or Sorghum vulgare Pers.)", "experiment": "Biological Example 2 glasshouse assay (IF50 formulation, X-77), post-emergence", "conditions": "14 or 15 DAA", "experimental": "as §2, §3"}, "[14]": {"system": "Echinochloa crus-galli (ECHCG)", "experiment": "Biological Example 2 glasshouse assay (IF50 formulation, X-77), post-emergence", "conditions": "14 or 15 DAA", "experimental": "as §2, §3"}, "[15]": {"system": "Setaria faberi (SETFA)", "experiment": "Biological Example 2 glasshouse assay (IF50 formulation, X-77), post-emergence", "conditions": "14 or 15 DAA", "experimental": "as §2, §3"}, "[16]": {"conditions": "125 g/ha (rate taken from row order)"}, "[17]": {"conditions": "250 g/ha (rate taken from row order)"}, "[18]": {"conditions": "e.g. when applied at 30 g/ha post-emergence, see Biological Example 2"}},
  "data": [
    {"compound": "C#CCC1CC(=O)C(c2c(F)cc(C#CC)cc2OC)C1=O", "note": "(stereo not shown) [Compound A8, 2-(2-fluoro-6-methoxy-4-prop-1-ynyl-phenyl)-4-prop-2-ynyl-cyclopentane-1,3-dione]", "values": [
      {"measurement": "post-emergent herbicidal potency against grassy monocotyledonous weeds (in words)", "setting": "[1]", "result": "potent post-emergent herbicides"},
      {"measurement": "Percentage phytotoxicity ZEAMX", "setting": "[2]", "result": 100, "unit": "%"},
      {"measurement": "percentage phytotoxicity score TRZAW", "setting": "[3]; 125 g/ha", "result": 50, "unit": "%"},
      {"measurement": "percentage phytotoxicity score TRZAW", "setting": "[3]; 250 g/ha", "result": 70, "unit": "%"},
      {"measurement": "phytotoxicity against wheat (in words)", "setting": "[3]; relative to herbicidal activity against warm-climate grassy weeds, Biological Example 2", "result": "medium or reasonably low phytotoxicity"},
      {"measurement": "percentage phytotoxicity score BRSNN", "setting": "[4]; 125 g/ha", "result": 40, "unit": "%"},
      {"measurement": "percentage phytotoxicity score BRSNN", "setting": "[4]; 250 g/ha", "result": 60, "unit": "%"},
      {"measurement": "percentage phytotoxicity score DIGSA", "setting": "[5]; [16]", "result": 100, "unit": "%"},
      {"measurement": "percentage phytotoxicity score DIGSA", "setting": "[5]; [17]", "result": 100, "unit": "%"},
      {"measurement": "percentage phytotoxicity score AVEFA", "setting": "[6]; [16]", "result": 30, "unit": "%"},
      {"measurement": "percentage phytotoxicity score AVEFA", "setting": "[6]; [17]", "result": 70, "unit": "%"},
      {"measurement": "percentage phytotoxicity score ZEAMX", "setting": "[7]; 125 g/ha", "result": 100, "unit": "%"},
      {"measurement": "percentage phytotoxicity score ZEAMX", "setting": "[7]; 250 g/ha", "result": 100, "unit": "%"},
      {"measurement": "percentage phytotoxicity score BRAPL", "setting": "[8]; [16]", "result": 100, "unit": "%"},
      {"measurement": "percentage phytotoxicity score BRAPL", "setting": "[8]; [17]", "result": 100, "unit": "%"},
      {"measurement": "phytotoxicity against soybean (in words)", "setting": "[9]; [18]", "result": "low or reasonably low phytotoxicity"},
      {"measurement": "percentage phytotoxicity score GLXMA", "setting": "[9]; 125 g/ha", "result": 10, "unit": "%"},
      {"measurement": "percentage phytotoxicity score GLXMA", "setting": "[9]; 250 g/ha", "result": 30, "unit": "%"},
      {"measurement": "percentage phytotoxicity score ALOMY", "setting": "[10]; 125 g/ha", "result": 50, "unit": "%"},
      {"measurement": "percentage phytotoxicity score ALOMY", "setting": "[10]; 250 g/ha", "result": 70, "unit": "%"},
      {"measurement": "percentage phytotoxicity score LOLPE", "setting": "[11]; [16]", "result": 30, "unit": "%"},
      {"measurement": "percentage phytotoxicity score LOLPE", "setting": "[11]; [17]", "result": 80, "unit": "%"},
      {"measurement": "phytotoxicity against sugarbeet (in words)", "setting": "[12]; [18]", "result": "low or reasonably low phytotoxicity"},
      {"measurement": "percentage phytotoxicity score BEAVA", "setting": "[12]; 125 g/ha", "result": 10, "unit": "%"},
      {"measurement": "percentage phytotoxicity score BEAVA", "setting": "[12]; 250 g/ha", "result": 10, "unit": "%"},
      {"measurement": "percentage phytotoxicity score SORVU", "setting": "[13]; [16]", "result": 100, "unit": "%"},
      {"measurement": "percentage phytotoxicity score SORVU", "setting": "[13]; [17]", "result": 100, "unit": "%"},
      {"measurement": "percentage phytotoxicity score ECHCG", "setting": "[14]; [16]", "result": 100, "unit": "%"},
      {"measurement": "percentage phytotoxicity score ECHCG", "setting": "[14]; [17]", "result": 100, "unit": "%"},
      {"measurement": "percentage phytotoxicity score SETFA", "setting": "[15]; [16]", "result": 90, "unit": "%"},
      {"measurement": "percentage phytotoxicity score SETFA", "setting": "[15]; [17]", "result": 100, "unit": "%"}
    ]}
  ]
}
